Measured values reported in US10722520B2, “Heterocyclic compounds and their use in preventing or treating bacterial infections” (MUTABILIS, priority 2016, dated 2020).
Where two headings read alike, the source gives them in different places.

Legend:
TEM-1 = TEM-1 (Escherichia coli, UniProt P62593)
OXA-1 = OXA-1 (Escherichia coli, UniProt P13661)
K. oxytoca UFR21 = experiment: MIC of compound alone, broth microdilution; format: cell-based; conditions: strain UFR21: K. oxytoca, TEM-1, CTX-M-15, OXA-48
Method in brief: (§1)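 Growth inhibition was scored by eye after 16-20 h at 35° C (room air), with bacteria from log phase seeded at 5×10^5 cfu/mL final in cation-adjusted Mueller-Hinton medium.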

E. cloacae UFR70 = experiment: MIC of compound alone, broth microdilution; format: cell-based; conditions: strain UFR70: E. cloacae, TEM-1, CTX-M-15, CMY-2, OXA-1, Porin loss
Method in brief: as §1

K. pneumoniae UFR77 = experiment: MIC of compound alone, broth microdilution; format: cell-based; conditions: strain UFR77: K. pneumoniae, CMY-2
Method in brief: as §1

E. coli UFR32 = experiment: MIC of compound alone, broth microdilution; format: cell-based; conditions: strain UFR32: E. coli, TEM-1, VEB-1, OXA-10
Method in brief: as §1

E. coli UFR74 = experiment: MIC of compound alone, broth microdilution; format: cell-based; conditions: strain UFR74: E. coli, SHV-1, DHA-1
Method in brief: as §1

E. cloacae UFR85 = experiment: MIC of compound alone, broth microdilution; format: cell-based; conditions: strain UFR85: E. cloacae, TEM-1, CTX-M-15, AmpC
Method in brief: as §1

E. cloacae P99 = experiment: MIC of compound alone, broth microdilution; format: cell-based; conditions: strain P99: E. cloacae, AmpC
Method in brief: as §1

E. coli UFR39 = experiment: MIC of compound alone, broth microdilution; format: cell-based
Method in brief: as §1

P. aeruginosa CIP107051 = experiment: MIC of compound alone, broth microdilution; format: cell-based; conditions: strain CIP107051: P. aeruginosa, TEM-24
Method in brief: as §1

E. coli 131119 = experiment: MIC of compound alone, broth microdilution; format: cell-based; conditions: strain 131119: E. coli, TEM-1, OXA-48
Method in brief: as §1

K. pneumoniae 6299 = experiment: MIC of compound alone, broth microdilution; format: cell-based; conditions: strain 6299: K. pneumoniae, TEM-1, SHV-11, OXA-163
Method in brief: as §1

K. pneumoniae UFR68 = experiment: MIC of compound alone, broth microdilution; format: cell-based; conditions: strain UFR68: K. pneumoniae, TEM-1, SHV-11, CTX-M-15, KPC-3
Method in brief: as §1

E. coli UFR41 = experiment: MIC of compound alone, broth microdilution; format: cell-based; conditions: strain UFR41: E. coli, TEM-1, CTX-M-15, CMY-2, OXA-1, NDM-4
Method in brief: as §1

K. pneumoniae BAA-1898 = experiment: MIC of compound alone, broth microdilution; format: cell-based; conditions: strain BAA-1898: K. pneumoniae, TEM-1, SHV-11, SHV-12, KPC-2
Method in brief: as §1

E. coli UFR18 = experiment: MIC of compound alone, broth microdilution; format: cell-based; conditions: strain UFR18: E. coli, CTX-M-15, OXA-204
Method in brief: as §1

K. pneumoniae UFR24 = experiment: MIC of compound alone, broth microdilution; format: cell-based; conditions: strain UFR24: K. pneumoniae, TEM-1, SHV-2, SHV-11, OXA-1, OXA-48, OXA-47
Method in brief: as §1

K. pneumoniae 200047 = experiment: MIC of compound alone, broth microdilution; format: cell-based; conditions: strain 200047: K. pneumoniae, TEM-1, SHV-32, CTX-M-15, OXA-1
Method in brief: as §1

E. cloacae UFR51 = experiment: MIC of compound alone, broth microdilution; format: cell-based; conditions: strain UFR51: E. cloacae, SHV-12, IMP-8
Method in brief: as §1

K. pneumoniae 160143 = experiment: MIC of compound alone, broth microdilution; format: cell-based; conditions: strain 160143: K. pneumoniae, TEM-1, SHV-1, CTX-M-15, KPC-2, OXA-1
Method in brief: as §1

E. cloacae 260508 = experiment: MIC of compound alone, broth microdilution; format: cell-based; conditions: strain 260508: E. cloacae, TEM-1, CTX-M-15
Method in brief: as §1

E. coli UFR61O = experiment: MIC of compound alone, broth microdilution; format: cell-based; conditions: strain UFR61O: E. coli, TEM-1, KPC-2
Method in brief: as §1

E. coli 190317 = experiment: MIC of compound alone, broth microdilution; format: cell-based; conditions: strain 190317: E. coli, TEM-1, SHV-12, CTX-M-15, OXA-1
Method in brief: as §1

KPC-2 = KPC-2 (Klebsiella pneumoniae, UniProt Q9F663)
OXA-15 = OXA-15 (Pseudomonas aeruginosa, UniProt Q51574); experiment: biochemical
[1] = Enterobacter cloacae, read-out: MIC compounds of the invention alone
[2] = Klebsiella pneumoniae, read-out: MIC compounds of the invention alone
[3] = Escherichia coli, read-out: MIC compounds of the invention alone

Q: `O=C1N2CC(n3ccsc3=O)=CC(C2)N1OS(=O)(=O)[O-].[Na+]` (stereo not drawn) [Example 1, Sodium [7-oxo-3-(2-oxo-thiazol-3-yl)-1,6-diaza-bicyclo[3.2.1]oct-3-en-6-yl]sulfate] was tested. Which IC50 (TEM-1) did it give?
A: The IC50 was 0.00025 µM.

Q: What about the IC50 (OXA-1) of the same compound?
A: The IC50 was 0.12 µM.

Q: What about the MIC (K. oxytoca UFR21; Klebsiella oxytoca, read-out: MIC compounds of the invention alone) of the same compound?
A: Its MIC is 8 mg/L.

Q: What about the MIC (E. cloacae UFR70; [1]) of the same compound?
A: The MIC was 4 mg/L.

Q: What about the MIC (K. pneumoniae UFR77; [2]) of the same compound?
A: The MIC was 8 mg/L.

Q: And the MIC (E. coli UFR32; [3])?
A: The MIC was 4 mg/L.

Q: What about the MIC (E. coli UFR74; [3]) of the same compound?
A: The MIC was 16 mg/L.

Q: What about the MIC (E. cloacae UFR85; [1]) of the same compound?
A: Its MIC is 4 mg/L.

Q: What about the MIC (E. cloacae P99; [1]) of the same compound?
A: Its MIC is 4 mg/L.

Q: What about the MIC (E. coli UFR39; Escherichia coli, UFR39, read-out: MIC compounds of the invention alone) of the same compound?
A: Its MIC is 2 mg/L.

Q: What about the MIC (P. aeruginosa CIP107051; Pseudomonas aeruginosa, read-out: MIC compounds of the invention alone) of the same compound?
A: The MIC was > 32 mg/L.

Q: And the MIC (E. coli 131119; [3])?
A: Its MIC is 2 mg/L.

Q: What about the MIC (K. pneumoniae 6299; [2]) of the same compound?
A: The MIC was 32 mg/L.

Q: And the MIC (K. pneumoniae UFR68; [2])?
A: Its MIC is 8 mg/L.

Q: What about the MIC (E. coli UFR41; [3]) of the same compound?
A: The MIC was 4 mg/L.

Q: What about the MIC (K. pneumoniae BAA-1898; Klebsiella pneumoniae, BAA1898, read-out: MIC compounds of the invention alone) of the same compound?
A: The MIC was 8 mg/L.

Q: What about the MIC (E. coli UFR18; [3]) of the same compound?
A: The MIC was 2 mg/L.

Q: What about the MIC (K. pneumoniae UFR24; [2]) of the same compound?
A: The MIC was 16 mg/L.

Q: What about the MIC (K. pneumoniae 200047; [2]) of the same compound?
A: Its MIC is 8 mg/L.

Q: And the MIC (E. cloacae UFR51; [1])?
A: Its MIC is 4 mg/L.

Q: What about the MIC (K. pneumoniae 160143; [2]) of the same compound?
A: Its MIC is 4 mg/L.

Q: What about the MIC (E. cloacae 260508; [1]) of the same compound?
A: Its MIC is 4 mg/L.

Q: And the MIC (E. coli UFR61O; [3])?
A: Its MIC is 16 mg/L.

Q: And the MIC (E. coli 190317; [3])?
A: Its MIC is 2 mg/L.

Q: What about the IC50 (KPC-2) of the same compound?
A: The IC50 was 0.013 µM.

Q: And the IC50 (OXA-15)?
A: The IC50 was 0.092 µM.

Q: `O=C1N2CC(n3ccnn3)=CC(C2)N1OS(=O)(=O)[O-].[Na+]` (stereo not drawn) [Example 2, sodium [7-oxo-3-(triazol-1-yl)-1,6-diazabicyclo[3.2.1]oct-3-en-6-yl]sulfate] was tested. Which IC50 (TEM-1; read-out: IC50 β-lactamase TEM-1, class (A), nitrocefin 200 μM, 30-min pre-incubation, enzyme 0.1 nM) did it give?
A: The IC50 was 0.00056 µM.

Q: And the IC50 (OXA-1; read-out: IC50 β-lactamase OXA-1, class (D), nitrocefin 200 μM, 30-min pre-incubation, enzyme 0.2 nM)?
A: Its IC50 is 0.058 µM.

Q: What about the “MIC compounds of the invention alone” value (K. oxytoca UFR21) of the same compound?
A: The value was 2 mg/L.

Q: What about the “MIC compounds of the invention alone” value (E. cloacae UFR70) of the same compound?
A: Its value is 1 mg/L.

Q: And the “MIC compounds of the invention alone” value (K. pneumoniae UFR77)?
A: The value was 2 mg/L.

Q: And the “MIC compounds of the invention alone” value (E. coli UFR32)?
A: Its value is 1 mg/L.

Q: And the “MIC compounds of the invention alone” value (E. coli UFR74)?
A: The value was 2 mg/L.

Q: What about the “MIC compounds of the invention alone” value (E. cloacae UFR85) of the same compound?
A: Its value is 1 mg/L.

Q: What about the “MIC compounds of the invention alone” value (E. cloacae P99) of the same compound?
A: The value was 1 mg/L.

Q: What about the “MIC compounds of the invention alone” value (E. coli UFR39; strain UFR39: E. coli, CTX-M-15, NDM-1) of the same compound?
A: Its value is 1 mg/L.

Q: And the “MIC compounds of the invention alone” value (P. aeruginosa CIP107051)?
A: The value was >32 mg/L.

Q: What about the “MIC compounds of the invention alone” value (E. coli 131119) of the same compound?
A: Its value is 1 mg/L.

Q: And the “MIC compounds of the invention alone” value (K. pneumoniae 6299)?
A: Its value is 4 mg/L.

Q: And the “MIC compounds of the invention alone” value (K. pneumoniae UFR68)?
A: The value was 4 mg/L.

Q: And the “MIC compounds of the invention alone” value (E. coli UFR41)?
A: The value was 2 mg/L.

Q: What about the “MIC compounds of the invention alone” value (K. pneumoniae BAA-1898) of the same compound?
A: The value was 2 mg/L.

Q: What about the “MIC compounds of the invention alone” value (E. coli UFR18) of the same compound?
A: Its value is 1 mg/L.

Q: And the “MIC compounds of the invention alone” value (K. pneumoniae UFR24)?
A: Its value is 4 mg/L.

Q: And the “MIC compounds of the invention alone” value (K. pneumoniae 200047)?
A: Its value is 2 mg/L.

Q: And the “MIC compounds of the invention alone” value (E. cloacae UFR51)?
A: Its value is 2 mg/L.

Q: And the “MIC compounds of the invention alone” value (K. pneumoniae 160143)?
A: Its value is 2 mg/L.

Q: What about the “MIC compounds of the invention alone” value (E. cloacae 260508) of the same compound?
A: Its value is 2 mg/L.

Q: And the “MIC compounds of the invention alone” value (E. coli UFR61O)?
A: The value was 4 mg/L.

Q: And the “MIC compounds of the invention alone” value (E. coli 190317)?
A: Its value is 1 mg/L.

Q: And the IC50 (KPC-2; read-out: IC50 β-lactamase KPC-2, class (A), nitrocefin 200 μM, 30-min pre-incubation, enzyme 1 nM)?
A: The IC50 was 0.0047 µM.
